Reference: patent US20260183242A1, “FORMULATIONS COMPRISING A COMBINATION OF ACID-NEUTRALIZING POLYMERIC AND NON-POLYMERIC SUBSTANCES FOR ORAL ADMINISTRATION OF ACTIVE AGENTS” (Entera Bio Ltd., priority 2023, published 2026)
Where two headings read alike, the source gives them in different places.

Key:
[1] = cited from earlier work
[2] = pH upon addition of test substance to 0.1 M HCl solution (pH 1.2), pH meter; format: physicochemical
Description: The solution pH was determined using an MP-103 pH-meter (MRC, Israel) equipped with ELC-10-00 electrode (MRC, Israel) or with a thin electrode HI1083 (HANNA instruments Inc.), shortly after dissolution and up to 26 hours later in order to ensure that the pH remained stable. The highest pH value obtained during the experimental time period was recorded in order to compare the acid-neutralizing capacity of each substance.
SNAC and the basic polymers sodium alginate, sodium carboxymethylcellulose in non-crosslinked (Na-CMC) and crosslinked (croscarmellose sodium, CCS) forms, and sodium starch glycolate (SSG) were dissolved in various volumes of 0.1 M HCl solution (pH 1.2) at concentrations of 1, 2, 4, 10, 20, 50, 100 and 150 mg/ml, and the solution pH was determined using an MP-103 pH-meter (MRC, Israel) equipped with ELC-10-00 electrode (MRC, Israel), as described in the Materials and Methods section hereinabove.
In order to obtain a beneficial rise in pH with a reduced loss of the active form of the absorption enhancer, the effect of various concentrations of different polymers containing carboxylate groups (sodium alginate, sodium starch glycolate, sodium carboxymethylcellulose, and croscarmellose sodium) on pH upon addition to a 0.1 M HCl solution (pH 1.2) was also evaluated. FIG. 3A presents pH values determined using an MP-103 pH-meter (MRC, Israel) equipped with ELC-10-00 electrode (MRC, Israel) and FIG. 3B presents pH values determined using an MP-103 pH-meter (MRC, Israel) equipped with a thin electrode HI1083 (HANNA instruments Inc.).

pepsin = test: Proteolysis of hPTH (1-34) by pepsin at various pH values; format: in vitro ADME; details: 150 μg/ml pepsin, 37° C., 3 minutes; media pH 2-7
Description: The effect of pH on peptide proteolysis by pepsin was determined by incubating 13.5 μg/ml human parathyroid hormone (1-34) (hPTH (1-34)) with 150 μg/ml pepsin, at various pH values, and determining the percentage of hPTH (1-34) which remained. The amount of hPTH (1-34) remaining upon addition to 150 μg/ml pepsin at 37° C. was determined in media with different pH values, followed by immediate (10 second) vortex and centrifugation for 3 minutes at 4° C., 4000 RCF. The following media were used: simulated gastric fluid (pH 2), prepared from 0.01 M HCl and NaCl; phthalate buffer (pH 4 or 5); and phosphate buffer (pH 6 or 7).

[3] = In vivo pig model: absorption of active agent from SNAC/SSG tablets with or without small proton-accepting agent; set-up: species or system mini-pigs; details: both sexes, minipig; for Cmax: mini-pigs, preliminary data
Description: The effect of combination of SNAC, sodium starch glycolate (SSG) as an exemplary alkaline polymer and a small molecule proton-accepting agent (Sodium carbonate, arginine and/or Sodium Decanoate (C10)) on absorption of a therapeutically active agent was assessed in an in vivo pig model, which allows testing of orally administered unit dosage forms with conventional dimensions that are applicable also in humans. The following proteinaceous therapeutically active agents were tested: lixisenatide, octreotide, desmopressin, salmon calcitonin, PTH (1-34), leuprolide.
All formulation constituents were in a dry powder form and mixed geometrically using mortar and pestle. Thereafter, round flat tablets were prepared from the mixes using a punch and dye and dental manual press.
The obtained tablets were administered at monitored conditions with the aid of endoscope into the stomachs of 2 male and 2 female mini-pigs (about 45 kg) for each tested group on different visits. Pigs were deprived of food the night before the experiments and during the experiment and deprived of water an hour before the experiment and during the experiment.
Blood samples were taken from the jugular vein through an indwelling cannula at predetermined time points during the first hour post-dose (which reflects the absorption phase). Plasma was separated and the concentration of the tested model molecules in plasma was quantified using a suitable technique.
hPTH (1-34) was quantified using a commercially available Elisa kit for the determination of hPTH (1-34) in plasma or cell culture media (Quidel Corp. Athens, OH, USA; Cat #60-3900).
Octreotide was quantified using a commercially available Elisa kit for the determination of octreotide in plasma or cell culture media (BMA Biomedicals, Augst, Switzerland. Cat #S-1341).
Formulations containing the same therapeutically active agents were also formulated with 11% SSG and typically included about 0.3-0.5% by weight of the active agent, 85-90% by weight SNAC, and magnesium stearate as a lubricant (about 1% by weight), and the total weight of the tablet was 90-95 mg.

[4] = drug alone, without absorption enhancer; cited from earlier work

In the case of `CCNC(=O)[C@@H]1CCCN1C(=O)[C@H](CCCNC(=N)N)NC(=O)[C@H](CC(C)C)NC(=O)[C@@H](CC(C)C)NC(=O)[C@H](Cc1ccc(O)cc1)NC(=O)[C@H](CO)NC(=O)[C@H](Cc1c[nH]c2ccccc12)NC(=O)[C@H](Cc1c[nH]cn1)NC(=O)[C@@H]1CCC(=O)N1` [Leuprolide, leuprolide], the “T1/2 (IV half-life)” value ([1]; in vivo, iv) is given as “about 3 hours”.

With `O=C(O)CCCCCCCNC(=O)c1ccccc1O` [SNAC, sodium 8-N-(2-hydroxybenzoyl)aminocaprylate] the “pH 5 minutes after dissolution” value ([2]; 10 mg/ml SNAC added to HCl solution (pH 1.2)) was “about 1.5”, the “pH 5 minutes after dissolution” value ([2]; 20 mg/ml SNAC added to HCl solution (pH 1.2)) was 6.5 and the “pH 5 minutes after dissolution” value ([2]; 100 mg/ml SNAC added to HCl solution (pH 1.2)) was “about 7.5”.

In the case of `NC(=O)CC[C@@H]1NC(=O)[C@H](Cc2ccccc2)NC(=O)[C@H](Cc2ccc(O)cc2)NC(=O)CCSSC[C@@H](C(=O)N2CCC[C@H]2C(=O)N[C@H](CCCN=C(N)N)C(=O)NCC(N)=O)NC(=O)[C@H](CC(N)=O)NC1=O` [desmopressin], the “T1/2 (IV half-life)” value ([1]; in vivo, iv) is listed as 3 to 5 h.

For `CC[C@H](C)[C@H](NC(=O)[C@H](CCC(=O)O)NC(=O)[C@H](CO)NC(=O)[C@@H](NC(=O)[C@@H](N)CO)C(C)C)C(=O)N[C@@H](CCC(N)=O)C(=O)N[C@@H](CC(C)C)C(=O)N[C@@H](CCSC)C(=O)N[C@@H](Cc1cnc[nH]1)C(=O)N[C@@H](CC(N)=O)C(=O)N[C@@H](CC(C)C)C(=O)NCC(=O)N[C@@H](CCCCN)C(=O)N[C@@H](Cc1cnc[nH]1)C(=O)N[C@@H](CC(C)C)C(=O)N[C@@H](CC(N)=O)C(=O)N[C@@H](CO)C(=O)N[C@@H](CCSC)C(=O)N[C@@H](CCC(=O)O)C(=O)N[C@@H](CCCN=C(N)N)C(=O)N[C@H](C(=O)N[C@@H](CCC(=O)O)C(=O)N[C@@H](Cc1c[nH]c2ccccc12)C(=O)N[C@@H](CC(C)C)C(=O)N[C@@H](CCCN=C(N)N)C(=O)N[C@@H](CCCCN)C(=O)N[C@@H](CCCCN)C(=O)N[C@@H](CC(C)C)C(=O)N[C@@H](CCC(N)=O)C(=O)N[C@@H](CC(=O)O)C(=O)N[C@H](C(=O)N[C@@H](Cc1cnc[nH]1)C(=O)N[C@@H](CC(N)=O)C(=O)N[C@@H](Cc1ccccc1)C(=O)O)C(C)C)C(C)C` [hPTH (1-34), teriparatide], the “pH at which proteolysis by pepsin was inhibited” value (pepsin) was no less than 6, the AUC(0-t) ([3]; AUClast) was 0.164 ng·h/mL and the AUC(0-t) ([3]; mean AUClast) was 0.0978 ng·h/mL. The “T1/2 (IV half-life)” value ([1]; intravenous) was “about 5 minutes”.

In the case of `C[C@@H](O)[C@@H]1NC(=O)[C@H](CCCCN)NC(=O)[C@@H](Cc2c[nH]c3ccccc23)NC(=O)[C@H](Cc2ccccc2)NC(=O)[C@@H](NC(=O)[C@H](N)Cc2ccccc2)CSSC[C@@H](C(=O)N[C@H](CO)[C@@H](C)O)NC1=O` [octreotide], the Cmax ([3]; octreotide 0.3-0.5%, SNAC 85-90%, about 11% SSG, magnesium stearate, no PAA, read-out: mean Cmax) is given as 2.09 ng/mL, the Cmax ([3]; octreotide, SSG 11% by weight formulation further including sodium decanoate (C10), read-out: Cmax) is given as 2.94 ng/mL and the “T1/2 (IV half-life)” value ([1]; intravenous) is given as “about 1.5 hours”.

In the case of `CC[C@H](C)[C@H](NC(=O)[C@H](Cc1ccccc1)NC(=O)[C@H](CC(=O)O)NC(=O)[C@H](CCCNC(=N)N)NC(=O)[C@H](C)NC(=O)[C@H](C)NC(=O)[C@H](CC(C)C)NC(=O)[C@H](CC(N)=O)NC(=O)[C@H](CC(=O)O)NC(=O)[C@H](CC(C)C)NC(=O)[C@@H](NC(=O)[C@@H](NC(=O)[C@H](CC(N)=O)NC(=O)[C@H](CCSC)NC(=O)[C@H](CCC(=O)O)NC(=O)[C@H](CC(=O)O)NC(=O)[C@H](CO)NC(=O)[C@H](Cc1ccccc1)NC(=O)[C@H](CO)NC(=O)CNC(=O)[C@H](CC(=O)O)NC(=O)CNC(=O)[C@@H](N)Cc1c[nH]cn1)[C@@H](C)O)[C@@H](C)CC)C(=O)N[C@@H](CC(N)=O)C(=O)N[C@@H](Cc1c[nH]c2ccccc12)C(=O)N[C@@H](CC(C)C)C(=O)N[C@H](C(=O)N[C@@H](CCC(N)=O)C(=O)N[C@H](C(=O)N[C@@H](CCCCN)C(=O)N[C@H](C(=O)N[C@H](C(=O)N[C@@H](CC(=O)O)C(=O)O)[C@@H](C)O)[C@@H](C)CC)[C@@H](C)O)[C@@H](C)CC` [teduglutide], the “oral (PO) bioavailability” value [4] is listed as “negligible”.

In the case of lixisenatide, the “T1/2 (IV half-life)” value ([1]; in vivo, iv) is listed as “about 3 hours”.

In the case of salmon calcitonin, the “T1/2 (IV half-life)” value ([1]; in vivo, iv) is listed as 1 to 1.5 h.
